Source: patent US8779161B2, “Asenapine maleate” (Dr. Reddy's Laboratories Limited, priority 2010, dated 2014)

Key:
[1] = starting with the monoclinic form; WO 2006/106135 A1, Examples 9 and 10 therein; cited from earlier work
[2] = Particle size distribution d(10), d(50), d(90); assay type: physicochemical
Text: For example, particle size distributions of asenapine maleate particles may be measured using microscopy or light scattering equipment, such as, for example, a Malvern Master Size 2000 from Malvern Instruments Limited, Malvern, Worcestershire, United Kingdom. The particle size distributions can be expressed, for example, in terms of d(90), d(50), and d(10) values, where the values (e.g., expressed in μm) are the maximum sizes for 90, 50, and 10 percent of the particles, respectively.
Polymorphs are different solids sharing the same molecular formula, yet having distinct physical properties when compared to other polymorphs of the same formula. As used throughout the disclosure, the D(10), D(50), and D(90) values are useful ways for indicating a particle size distribution. D(90) refers to at least 90 volume percent of the particles having a size smaller than the said value. Likewise, D(10) refers to 10 volume percent of the particles having a size smaller than the said value. D(50) refers to 50 volume percent of the particles having a size smaller than the said value. Methods for determining D(10), D(50), and D(90) include laser diffraction, such as using equipment from Malvern Instruments Ltd. of Malvern, Worcestershire, United Kingdom. HPLC is High Pressure Liquid Chromatography.

[3] = Micronization of asenapine maleate monoclinic form: polymorphic form by PXRD after micronizing; assay type: physicochemical; settings: Midas Micronizer 50, nitrogen carrier gas, 4-6 Kg/cm^2; compared with reference pattern of monoclinic polymorph
Description: All PXRD data reported herein are obtained using a Bruker AXS D8 Advance Powder X-ray Diffractometer or a PANalytical X-ray Diffractometer, using copper Kα radiation. Generally, a diffraction angle (2θ) in powder X-ray diffractometry may have permissible variation in the range of ±0.2°. Although the intensities of peaks in the x-ray powder diffraction patterns of different batches of a compound may vary slightly, the peaks and the peak locations are characteristic for a specific polymorphic form. The relative intensities of the PXRD peaks can vary depending on the sample preparation technique, crystal size distribution, various filters used, the sample mounting procedure, and the particular instrument employed. Moreover, instrument variation and other factors can affect the 2-theta values. Therefore, the term “substantially” in the context of PXRD is meant to encompass that peak assignments can vary by plus or minus about 0.2° 2-theta.

[4] = after micronization, Midas Micronizer 50, nitrogen 4-6 Kg/cm^2
[5] = before micronization (as isolated)

## CN1C[C@H]2c3ccccc3Oc3ccc(Cl)cc3[C@@H]2C1.O=C(O)/C=C\C(=O)O [form H, asenapine maleate]
[1]
  polymorphic form obtained after micronization: Either the monoclinic form, or the orthorhombic form or a mixture of polymorphs was obtained

## CN1C[C@H]2c3ccccc3Oc3ccc(Cl)cc3[C@@H]2C1.O=C(O)/C=C\C(=O)O [Example 11, Asenapine Maleate Monoclinic Form]
[2]; [4]
  particle size distribution d(10): 0.994 μm
  particle size distribution d(50): 5.516 μm
  particle size distribution d(90): 12.715 μm
[2]; [5]
  particle size distribution d(10): 5.671 μm
  particle size distribution d(50): 24.077 μm
  particle size distribution d(90): 58.716 μm

## CN1C[C@H]2c3ccccc3Oc3ccc(Cl)cc3[C@@H]2C1.O=C(O)/C=C\C(=O)O [Example 13, Asenapine Maleate]
[3]
  PXRD Pattern after Micronizing: complies with reference pattern of monoclinic polymorph
[2]; [4]
  particle size distribution d(10): 0.887 μm
  particle size distribution d(50): 4.632 μm
  particle size distribution d(90): 10.678 μm
[2]; [5]
  particle size distribution d(10): 6.269 μm
  particle size distribution d(50): 35.229 μm
  particle size distribution d(90): 80.698 μm

## CN1C[C@H]2c3ccccc3Oc3ccc(Cl)cc3[C@@H]2C1.O=C(O)/C=C\C(=O)O [Example 26, Asenapine Maleate]
[2]; [5]
  particle size distribution d(90): 88 μm

## CN1C[C@H]2c3ccccc3Oc3ccc(Cl)cc3[C@@H]2C1.O=C(O)/C=C\C(=O)O [Example 15, Asenapine Maleate Monoclinic Form]
[2]; [5]
  particle size distribution d(10): 4.38 μm
  particle size distribution d(50): 14.42 μm
  particle size distribution d(90): 33.11 μm
